Molecules are shown by their SMILES.

In series [1] the test system is HepG2. The series can be described thus: Cell growth / viability assay. The format is cell-based.
Series [2] concerns C3H/HeJ mouse. The series can be described thus: C3H/HeJ model of alopecia areata. The format is in vivo. The following applies: 0.2 μg for 15 days, observed 30 days. Here is the method: C3H/HeJ Model of Abpecia Areata. Retired breeders (8 months of age) were observed daily for the development of AA lesions. […] One group received ethanol vehicle control whereas the other received 0.2 μg 1,25(OH)2D3 in the alopecic lesions for 15 days.

Series [3] has as its system scalp hair follicles. The series can be described thus: Rat model, duration of calcitriol treatment before chemotherapy. It counts as in vivo. The source says: While not wishing to be bound by any particular theory, it is believed that application of vitamin D to the scalp or any other area of skin having hair induces differentiation of hair follicles, which is required for the stage conversion of the hair from a growing anagen stage to an involuting catagen stage. […] In humans, a hair follicle of the scalp has a substantially longer anagen phase than that of animals. Indeed, at any time, at least 90% of hair follicles in a human scalp are in the anagen phase. It is believed that a short treatment duration is not sufficient to induce catagen stage in scalp hair follicles, which subsequently makes them more susceptible to cytotoxicity of chemotherapy. […] Continued application on a daily basis will ensure the maintenance of the catagen stage and extended protection throughout administration of multiple doses of a chemotherapeutic (e.g., taxane-containing) regimen.

Series [4] deals with guinea pigs. Kind of series: Skin sensitization study. The format is in vivo, guinea pig. As to conditions: calcitriol at 5.7 μg/g, topical patch induction and challenge. Here is the method: Induction phase. […] The induction exposure was repeated at the same skin site once a week for 2 weeks. The vehicle and positive control groups composed of 5 male and 5 female guinea pigs, each of which were exposed in the same manner as the treatment group to propylene glycol/anhydrous ethanol or hexylcinnamic aldehyde (a known mild to moderate skin-sensitizer), respectively. Skin reactions were scored and recorded at approximately 24 hours after patch removal during the induction phase. After the last induction exposure, the animals remained untreated for two weeks before the challenge exposure.
Challenge phase. The challenge exposure was conducted two weeks after the final topical induction. The test article was topically applied to the Vehicle Control and Test Group at the concentration determined to be non-irritating in the irritation screen. The Vehicle Control Group was also challenged with the Vehicle. The Positive Control Groups received the positive control article. The challenge application sites were scored at approximately 24 and 48 hours after patch removal.

`C=C1/C(=C\C=C2/CCC[C@]3(C)[C@@H]([C@H](C)CCCC(C)(C)O)CC[C@@H]23)C[C@@H](O)C[C@@H]1O` [Calcitriol, (1a.3B.5Z.7E)-9,10-secocholesta-5,7,10(19)-triene-1,3,25-triol]: the “effect of calcitriol on cytotoxic effect of Doxorubicin” value in series [1] is reported as “did not appear to appreciably alter”. Besides, the “response to doxorubicin, cisplatin, erlotinib after calcitriol exposure” value in series [1] (0.1 μg/mL calcitriol for two passages) is recorded as “did not alter”. Also, the “5-FU ED50 curve with vs without calcitriol” value in series [1] (0.1 μg/mL calcitriol supplement) is listed as “not significantly different”. The “concentrations giving growth inhibition” value in series [1] (high concentrations) was above 0.5 µg/mL. The “concentrations giving growth stimulation” value in series [1] (low concentrations) fell in the range of 0.05 to 0.25 µg/mL. Further, the “regrowth of hair in alopecic lesions” value in series [2] was “No regrowth of hair”. Besides, the “daily application before chemotherapy required to see any protective effect” value in series [3] is on record as “at least four days”. For the same molecule, the “protection with 5 days of application before chemotherapy” value in series [3] (increasing protection up to one week) was “moderate protection”. Further, the skin sensitization entry in series [4] was “not determined to be a sensitizer”.

The values are drawn from patent US20220023317A1, “PREVENTING OR MITIGATING CHEMOTHERAPY INDUCED ALOPECIA USING VITAMIN D” (Berg LLC, priority 2013, published 2022).
